Converted amounts (≈) assume the structure as drawn.
Experiments:
[1] = system: MRSA (USA300 NRS384 strain); experiment: Murine intravenous infection model (SCID IVIG model); assay type: in vivo, Staphylococcus aureus; settings: for mice having undetectable level of bacteria in hearts: day 4, n=8; for reduction of bacterial load in kidneys: vs naked antibody
Procedure: Murine intravenous infection model. For studies involving competing human IgG (SCID IVIG model), CB17.SCID mice (Charles River Laboratories, Hollister, Calif.) were reconstituted with GammaGard S/D IGIV Immune Globulin (ASD Healthcare, Brooks Ky.) using a dosing regimen optimized to achieve constant serum levels of at least 10 mg/mL of human IgG in serum. IGIV was administered with an initial intravenous dose of 30 mg per mouse followed by a second dose of 15 mg/mouse by intraperitoneal injection after 6 hours, and subsequent daily dosing of 15 mg per mouse by intraperitoneal injection for 3 consecutive days.
Mice (n=8 for each of antibody or AAC) were infected 4 hours after the first dose of IGIV with 1×10^7 CFU of MRSA (USA300 NRS384 strain) diluted in phosphate buffered saline by intravenous injection. Infected mice were treated with 50 mg/kg of rF1 naked antibody, 103 AAC DAR2 or 102 AAC DAR4. Mice were given a single dose of AAC 26h post infection by intravenous injection, sacrificed on day 4 post infection, and kidneys and hearts were harvested in 5 mL of phosphate buffered saline. The tissue samples were homogenized using a GentleMACS Dissociator™ (Miltenyi Biotec, Auburn, Calif.). The total number of bacteria recovered per organ was determined by plating serial dilutions of the tissue homogenate in PBS 0.05% Tween on Tryptic Soy Agar with 5% defibrinated sheep blood.

[2] = system: S. aureus (USA300 NRS384 strain) in murine macrophages; experiment: In vitro macrophage assay; assay type: cell-based, Staphylococcus aureus; settings: for reduction of bacterial loads: highest dose tested (100 ug/mL), intracellular bacteria 2 days later; for killing of intracellular MRSA: macrophage assay in vitro
Procedure: S. aureus (USA300 NRS384 strain) was incubated with various doses (100 ug/mL, 10 ug/mL, 1 ug/mL or 0.1 ug/mL) of an anti-S. aureus unconjugated antibody, 103 AAC loaded with 1.9 average antibiotic molecules per antibody (AAR2) or with 102 AAC loaded with 3.9 average antibiotic molecules per antibody (AAR4) for 1 hour to permit binding of the antibody to the bacteria. The resulting opsonized bacteria were fed to murine macrophages and incubated at 37° C. to permit phagocytosis (in vitro macrophage assay). After 2 hours, the infection mix was removed and replaced with normal growth media supplemented with 50 ug/mL of gentamycin to kill any remaining extracellular bacteria. The total number of surviving intracellular bacteria was determined 2 days later by plating serial dilutions of the macrophage lysates on Tryptic Soy Agar plates.

[3] = system: MRSA; experiment: In vitro survival of MRSA in presence of vancomycin (planktonic, on MG63 osteoblasts, inside peritoneal cells); assay type: cell-based, Staphylococcus aureus
Procedure: Further analyses in vitro addressed more quantitatively the extent to which intracellular survival facilitates antibiotic evasion. To this end, MG63 osteoblasts were infected with either planktonic MRSA or intracellular MRSA, in the presence of vancomycin.
Infection of osteoblasts or HBMEC. MG63 cell line was obtained from ATCC (CRL-1427) and maintained in RPMI 1640 tissue culture media supplemented with 10 mM Hepes and 10% Fetal Calf Serum (RPMI-10). HBMEC cells (Catalog #1000) and ECM media (catalog#1001) were obtained from SciencCell Research Labs (Carlsbad, Calif.). Cells were plated in 24 well tissue culture plates and cultured to obtain a confluent layer. On the day of the experiment, the cells were washed once in RPMI (without supplements). MRSA or infected peritoneal cells were diluted in complete RPMI-10 and vancomycin was added at 5 ug/mL immediately prior to infection. Peritoneal cells were added to the osteoblasts at 1×10^6 peritoneal cells/mL. A sample of the cells was lysed with 0.1% triton-x to determine the actual concentration of live intracellular bacteria at the time of infection. The actual titer for all infections was determined by plating serial dilutions of the bacteria on Tryptic Soy Agar with 5% defibrinated sheep blood.
MRSA (free bacteria) was seeded in media, media+vancomycin, or media+vancomycin and plated on a monolayer of MG63 osteoblasts (FIG. 1E) or Human Brain Microvascular Endothelial Cells (HBMEC, FIG. 1F). Plates were centrifuged to promote contact of the bacteria with the monolayer. At each time point, the culture supernatant was collected to recover extracellular bacteria or adherent cells were lysed to release intracellular bacteria.

[4] = system: S. aureus; experiment: Mouse intravenous infection with free vs intracellular S. aureus, vancomycin therapy; assay type: in vivo, Staphylococcus aureus; settings: mice, i.v. infection, vancomycin immediately after infection then once per day, 4 days post infection
Procedure: FIGS. 1A-1F: Intracellular stores of MRSA are protected from vancomycin in vivo and in vitro. […] Four cohorts of mice were infected by intravenous injection with roughly equivalent doses of viable free bacteria or intracellular bacteria and selected groups were treated with vancomycin immediately after infection and then once per day (see Example 2). FIG. 1B and FIG. 1C show bacterial loads in kidney and brain, respectively of infected mice 4 days post infection. The dashed line indicates the limit of detection for the assay. […] (ND=none detected). […] MRSA (free bacteria) was seeded in media, media+vancomycin, or media+vancomycin and plated on a monolayer of MG63 osteoblasts (FIG. 1E) or Human Brain Microvascular Endothelial Cells (HBMEC, FIG. 1F). Extracellular bacteria (free bacteria) grew well in media alone, but were killed by vancomycin. In wells containing a monolayer of mammalian cells (Intracellular+vanco) a fraction of the bacteria were protected from vancomycin during the first 8 hours after infection and were able to expand within the intracellular compartment over 24 hours. Error bars show standard deviation for triplicate wells.
These experiments compared the virulence of intracellular bacteria versus an equivalent dose of free-living planktonic bacteria, and determined whether the intracellular bacteria are able to establish infection in the presence of vancomycin in vivo. […]

[5] = system: MRSA sequestered inside mouse peritoneal macrophages; experiment: MIC determination for intracellular bacteria sequestered inside murine macrophages; assay type: cell-based, Staphylococcus aureus; settings: for MIC: Staphylococcus aureus, MRSA, 24 h, read-out: Intracellular MRSA MIC; for killing of MRSA sequestered inside macrophages: clinically achievable concentrations of the antibiotics
Procedure: Intracellular MIC was determined on bacteria that were sequestered inside mouse peritoneal macrophages (see below for generation of murine peritoneal macrophages). Macrophages were plated in 24 well culture dishes at a density of 4×10^5 cells/mL and infected with MRSA at a ratio of 10-20 bacteria per macrophage. Macrophage cultures were maintained in growth media supplemented with 50 ug/mL of gentamycin (an antibiotic that is active only on extracellular bacteria) to inhibit the growth of extracellular bacteria and test antibiotics were added to the growth media 1 day after infection. The survival of intracellular bacteria was assessed 24 hours after addition of the antibiotics. Macrophages were lysed with Hanks Buffered Saline Solution supplemented with 0.1% Bovine Serum Albumin and 0.1% Triton-X, and serial dilutions of the lysate were made in Phosphate Buffered Saline solution containing 0.05% Tween-20. The number of surviving intracellular bacteria was determined by plating on Tryptic Soy Agar plates with 5% defibrinated sheep blood.
(§1) For extracellular bacteria, MRSA was cultured overnight in Tryptic Soy Broth, and the MIC was determined to be the minimum antibiotic dose that prevented growth. For intracellular bacteria, murine peritoneal macrophages were infected with MRSA and cultured in the presence of gentamycin to kill extracellular bacteria. Test antibiotics were added to the culture medium one day post infection, and the total number of surviving intracellular bacteria was determined 24 hours later. The expected serum concentrations for clinically relevant antibiotics was reported in Antimicrobial Agents, Andre Bryskier. ASM Press, Washington D.C. (2005).

[6] = system: MRSA (NRS384 strain of USA300); experiment: MIC determination for extracellular bacteria in liquid culture; assay type: cell-based; settings: Staphylococcus aureus, read-out: Extracellular MRSA MIC
Procedure: The MIC for extracellular bacteria was determined by preparing serial 2-fold dilutions of the antibiotic in Tryptic Soy Broth. Dilutions of the antibiotic were made in quadruplicate in 96 well culture dishes. MRSA (NRS384 strain of USA300) was taken from an exponentially growing culture and diluted to 1×10^4 CFU/mL. The bacteria was cultured in the presence of antibiotic for 18-24 hours with shaking at 37° C. and bacterial growth was determined by reading the Optical Density (OD) at […]. The MIC was determined to be the dose of antibiotic that inhibited bacterial growth by >90%.
as §1

[7] = biological target: glycosylated serine-aspartate repeat (SDR) proteins of Staphylococcus aureus, as displayed on whole bacteria, in lysates or in cell wall preparations; experiment: flow cytometry on whole USA300 bacteria
[8] = CB17.SCID mice with IGIV, 50 mg/kg single i.v. dose 26h post infection, day 4

Molecule: thio-rF1-LC-V205C-MC-(CBDK-cit)-PAB-(dimethylpipBOR) [AAC 103]
- mice having undetectable level of bacteria in hearts ([1]; 50 mg/kg single i.v. dose): 6 out of 8
- reduction of bacterial burdens in heart [1, 8]: approximately 70 fold
- reduction of bacterial load in kidneys [1, 8]: approximately 30 fold
- reduction of bacterial loads [2]: 350 fold
- killing of intracellular MRSA [2]: killed intracellular MRSA

Molecule: CN[C@H](CC(C)C)C(=O)N[C@H]1C(=O)N[C@@H](CC(N)=O)C(=O)N[C@H]2C(=O)N[C@H]3C(=O)N[C@H](C(=O)N[C@H](C(=O)O)c4cc(O)cc(O)c4-c4cc3ccc4O)[C@H](O)c3ccc(c(Cl)c3)Oc3cc2cc(c3O[C@@H]2O[C@H](CO)[C@@H](O)[C@H](O)[C@H]2O[C@H]2C[C@](C)(N)[C@H](O)[C@H](C)O2)Oc2ccc(cc2Cl)[C@H]1O [Vancomycin]
- survival of intracellular MRSA in the leukocytes ([3]; MRSA sequestered inside peritoneal cells, vancomycin, identical conditions): About 15%
- killing of planktonic bacteria ([3]; planktonic bacteria exposed to vancomycin alone, 5 ug/mL, one day in culture): efficiently killed
- surviving bacteria associated with MG63 cells (% of input) ([3]; planktonic bacteria plated on MG63 osteoblasts, vancomycin, one day after infection): approximately 0.06%
- establishment of infection in kidney and brain under vancomycin therapy [4]: intracellular bacteria, but not planktonic bacteria, were able to establish infection
- MIC [5]: > 100 mg/L
- killing of MRSA sequestered inside macrophages [5]: failed to kill
- MIC [6]: 1 mg/L (≈ 0.69 µM)

Molecule: CC(=O)NC[C@H]1CN(c2ccc(N3CCOCC3)c(F)c2)C(=O)O1 [Linezolid]
- killing of MRSA sequestered inside macrophages [5]: failed to kill

Molecule: CO[C@H]1/C=C/O[C@@]2(C)Oc3c(C)c(O)c4c(O)c(c(/C=N/N5CCN(C)CC5)c(O)c4c3C2=O)NC(=O)/C(C)=C\C=C\[C@H](C)[C@H](O)[C@@H](C)[C@@H](O)[C@@H](C)[C@H](OC(C)=O)[C@@H]1C [Rifampicin]
- fold higher dose to eliminate intracellular MRSA compared to MIC of planktonic bacteria ([5]; intracellular vs planktonic): 6,000 fold

Molecule: thio-rF1-HC-121C, LC-V205C-MC-(CBDK-cit)-PAB-(dimethylpipBOR) [AAC 102]
- eradication of infection in hearts ([1]; 50 mg/kg single i.v. dose, day 4): completely eradicated infection in hearts
- mice having undetectable level of bacteria in hearts ([1]; 50 mg/kg single i.v. dose): 8 out of 8
- reduction of bacterial load in kidneys [1, 8]: more than 30,000 fold
- reduction of bacterial loads [2]: more than 4,000 fold
- killing of intracellular MRSA [2]: killed intracellular MRSA

Molecule: CCCCCCCCCC(=O)N[C@@H](Cc1c[nH]c2ccccc12)C(=O)N[C@H](CC(N)=O)C(=O)N[C@@H](CC(=O)O)C(=O)N[C@@H]1C(=O)NCC(=O)N[C@@H](CCCN)C(=O)N[C@@H](CC(=O)O)C(=O)N[C@H](C)C(=O)N[C@@H](CC(=O)O)C(=O)NCC(=O)N[C@H](CO)C(=O)N[C@@H]([C@H](C)CC(=O)O)C(=O)N[C@@H](CC(=O)c2ccccc2N)C(=O)O[C@@H]1C [Daptomycin]
- MIC [5]: > 100 mg/L
- killing of MRSA sequestered inside macrophages [5]: failed to kill
- MIC [6]: 4 mg/L (≈ 2.47 µM)

B1: monoclonal antibody rF1 (recombinantly produced F1), human IgG1 kappa (antibody, V domains shown)
VH: EVQLVESGGGLVQPGGSLRLSCAASGFTLSRFAMSWVRQAPGRGLEWVASINNGNNPYYARSVQYRFTVSRDVSQNTVSLQMNNLRAEDSATYFCAKDHPSSGWPTFDSWGPGTLVTVSS
VL: DIQLTQSPSALPASVGDRVSITCRASENVGDWLAWYRQKPGKAPNLLIYKTSILESGVPSRFSGSGSGTEFTLTISSLQPDDFATYYCQHYMRFPYTFGQGTKVEIKR
- fold of maximum binding (MFI) against anti-ClfA mAb 4675 [7]: 10 fold
